Laboratory results published in ChEMBL document CHEMBL2177102, “Modulation of DNA repair by pharmacological inhibitors of the PIKK protein kinase family” (Bioorg Med Chem Lett, 2012).
Where “and” joins values, the source holds several entries; their conditions need not be identical. Equal entries are not always repeated.

Tests used:
[1] = biological target: DNA-dependent protein kinase catalytic subunit (Mus musculus, UniProt P97313); assay: Inhibition of DNA-PK in C57BL6 mouse endothelial cells; type: cell-based, Endothelial cell
[2] = biological target: T1, DNA-dependent protein kinase catalytic subunit (Homo sapiens, UniProt P78527); assay: Inhibition of DNA-PK assessed as inhibition of p53 peptide phosphorylation
[3] = biological target: T1, DNA-dependent protein kinase catalytic subunit; assay: Competitive inhibition of DNA-PK
[4] = biological target: T1, DNA-dependent protein kinase catalytic subunit; assay: Inhibition of DNA-PK
[5] = biological target: Serine-protein kinase ATM (Homo sapiens, UniProt Q13315); assay: Irreversible inhibition of ATM
[6] = biological target: Heat shock protein HSP 90-beta (Homo sapiens, UniProt P08238); assay: Inhibition of Hsp90
[7] = Inhibition of PI3K
[8] = biological target: Serine/threonine-protein kinase ATR (Homo sapiens, UniProt Q13535); assay: Inhibition of flag-tagged ATR expressed in HEK293T cells using PHAS-1 as substrate after 20 mins by autoradiography; set-up: species or system HEK-293T
[9] = biological target: T1, DNA-dependent protein kinase catalytic subunit; assay: Inhibition of DNA-PK in human U1810 cells after 30 mins; type: cell-based

T1 sequence (P78527 whole entry): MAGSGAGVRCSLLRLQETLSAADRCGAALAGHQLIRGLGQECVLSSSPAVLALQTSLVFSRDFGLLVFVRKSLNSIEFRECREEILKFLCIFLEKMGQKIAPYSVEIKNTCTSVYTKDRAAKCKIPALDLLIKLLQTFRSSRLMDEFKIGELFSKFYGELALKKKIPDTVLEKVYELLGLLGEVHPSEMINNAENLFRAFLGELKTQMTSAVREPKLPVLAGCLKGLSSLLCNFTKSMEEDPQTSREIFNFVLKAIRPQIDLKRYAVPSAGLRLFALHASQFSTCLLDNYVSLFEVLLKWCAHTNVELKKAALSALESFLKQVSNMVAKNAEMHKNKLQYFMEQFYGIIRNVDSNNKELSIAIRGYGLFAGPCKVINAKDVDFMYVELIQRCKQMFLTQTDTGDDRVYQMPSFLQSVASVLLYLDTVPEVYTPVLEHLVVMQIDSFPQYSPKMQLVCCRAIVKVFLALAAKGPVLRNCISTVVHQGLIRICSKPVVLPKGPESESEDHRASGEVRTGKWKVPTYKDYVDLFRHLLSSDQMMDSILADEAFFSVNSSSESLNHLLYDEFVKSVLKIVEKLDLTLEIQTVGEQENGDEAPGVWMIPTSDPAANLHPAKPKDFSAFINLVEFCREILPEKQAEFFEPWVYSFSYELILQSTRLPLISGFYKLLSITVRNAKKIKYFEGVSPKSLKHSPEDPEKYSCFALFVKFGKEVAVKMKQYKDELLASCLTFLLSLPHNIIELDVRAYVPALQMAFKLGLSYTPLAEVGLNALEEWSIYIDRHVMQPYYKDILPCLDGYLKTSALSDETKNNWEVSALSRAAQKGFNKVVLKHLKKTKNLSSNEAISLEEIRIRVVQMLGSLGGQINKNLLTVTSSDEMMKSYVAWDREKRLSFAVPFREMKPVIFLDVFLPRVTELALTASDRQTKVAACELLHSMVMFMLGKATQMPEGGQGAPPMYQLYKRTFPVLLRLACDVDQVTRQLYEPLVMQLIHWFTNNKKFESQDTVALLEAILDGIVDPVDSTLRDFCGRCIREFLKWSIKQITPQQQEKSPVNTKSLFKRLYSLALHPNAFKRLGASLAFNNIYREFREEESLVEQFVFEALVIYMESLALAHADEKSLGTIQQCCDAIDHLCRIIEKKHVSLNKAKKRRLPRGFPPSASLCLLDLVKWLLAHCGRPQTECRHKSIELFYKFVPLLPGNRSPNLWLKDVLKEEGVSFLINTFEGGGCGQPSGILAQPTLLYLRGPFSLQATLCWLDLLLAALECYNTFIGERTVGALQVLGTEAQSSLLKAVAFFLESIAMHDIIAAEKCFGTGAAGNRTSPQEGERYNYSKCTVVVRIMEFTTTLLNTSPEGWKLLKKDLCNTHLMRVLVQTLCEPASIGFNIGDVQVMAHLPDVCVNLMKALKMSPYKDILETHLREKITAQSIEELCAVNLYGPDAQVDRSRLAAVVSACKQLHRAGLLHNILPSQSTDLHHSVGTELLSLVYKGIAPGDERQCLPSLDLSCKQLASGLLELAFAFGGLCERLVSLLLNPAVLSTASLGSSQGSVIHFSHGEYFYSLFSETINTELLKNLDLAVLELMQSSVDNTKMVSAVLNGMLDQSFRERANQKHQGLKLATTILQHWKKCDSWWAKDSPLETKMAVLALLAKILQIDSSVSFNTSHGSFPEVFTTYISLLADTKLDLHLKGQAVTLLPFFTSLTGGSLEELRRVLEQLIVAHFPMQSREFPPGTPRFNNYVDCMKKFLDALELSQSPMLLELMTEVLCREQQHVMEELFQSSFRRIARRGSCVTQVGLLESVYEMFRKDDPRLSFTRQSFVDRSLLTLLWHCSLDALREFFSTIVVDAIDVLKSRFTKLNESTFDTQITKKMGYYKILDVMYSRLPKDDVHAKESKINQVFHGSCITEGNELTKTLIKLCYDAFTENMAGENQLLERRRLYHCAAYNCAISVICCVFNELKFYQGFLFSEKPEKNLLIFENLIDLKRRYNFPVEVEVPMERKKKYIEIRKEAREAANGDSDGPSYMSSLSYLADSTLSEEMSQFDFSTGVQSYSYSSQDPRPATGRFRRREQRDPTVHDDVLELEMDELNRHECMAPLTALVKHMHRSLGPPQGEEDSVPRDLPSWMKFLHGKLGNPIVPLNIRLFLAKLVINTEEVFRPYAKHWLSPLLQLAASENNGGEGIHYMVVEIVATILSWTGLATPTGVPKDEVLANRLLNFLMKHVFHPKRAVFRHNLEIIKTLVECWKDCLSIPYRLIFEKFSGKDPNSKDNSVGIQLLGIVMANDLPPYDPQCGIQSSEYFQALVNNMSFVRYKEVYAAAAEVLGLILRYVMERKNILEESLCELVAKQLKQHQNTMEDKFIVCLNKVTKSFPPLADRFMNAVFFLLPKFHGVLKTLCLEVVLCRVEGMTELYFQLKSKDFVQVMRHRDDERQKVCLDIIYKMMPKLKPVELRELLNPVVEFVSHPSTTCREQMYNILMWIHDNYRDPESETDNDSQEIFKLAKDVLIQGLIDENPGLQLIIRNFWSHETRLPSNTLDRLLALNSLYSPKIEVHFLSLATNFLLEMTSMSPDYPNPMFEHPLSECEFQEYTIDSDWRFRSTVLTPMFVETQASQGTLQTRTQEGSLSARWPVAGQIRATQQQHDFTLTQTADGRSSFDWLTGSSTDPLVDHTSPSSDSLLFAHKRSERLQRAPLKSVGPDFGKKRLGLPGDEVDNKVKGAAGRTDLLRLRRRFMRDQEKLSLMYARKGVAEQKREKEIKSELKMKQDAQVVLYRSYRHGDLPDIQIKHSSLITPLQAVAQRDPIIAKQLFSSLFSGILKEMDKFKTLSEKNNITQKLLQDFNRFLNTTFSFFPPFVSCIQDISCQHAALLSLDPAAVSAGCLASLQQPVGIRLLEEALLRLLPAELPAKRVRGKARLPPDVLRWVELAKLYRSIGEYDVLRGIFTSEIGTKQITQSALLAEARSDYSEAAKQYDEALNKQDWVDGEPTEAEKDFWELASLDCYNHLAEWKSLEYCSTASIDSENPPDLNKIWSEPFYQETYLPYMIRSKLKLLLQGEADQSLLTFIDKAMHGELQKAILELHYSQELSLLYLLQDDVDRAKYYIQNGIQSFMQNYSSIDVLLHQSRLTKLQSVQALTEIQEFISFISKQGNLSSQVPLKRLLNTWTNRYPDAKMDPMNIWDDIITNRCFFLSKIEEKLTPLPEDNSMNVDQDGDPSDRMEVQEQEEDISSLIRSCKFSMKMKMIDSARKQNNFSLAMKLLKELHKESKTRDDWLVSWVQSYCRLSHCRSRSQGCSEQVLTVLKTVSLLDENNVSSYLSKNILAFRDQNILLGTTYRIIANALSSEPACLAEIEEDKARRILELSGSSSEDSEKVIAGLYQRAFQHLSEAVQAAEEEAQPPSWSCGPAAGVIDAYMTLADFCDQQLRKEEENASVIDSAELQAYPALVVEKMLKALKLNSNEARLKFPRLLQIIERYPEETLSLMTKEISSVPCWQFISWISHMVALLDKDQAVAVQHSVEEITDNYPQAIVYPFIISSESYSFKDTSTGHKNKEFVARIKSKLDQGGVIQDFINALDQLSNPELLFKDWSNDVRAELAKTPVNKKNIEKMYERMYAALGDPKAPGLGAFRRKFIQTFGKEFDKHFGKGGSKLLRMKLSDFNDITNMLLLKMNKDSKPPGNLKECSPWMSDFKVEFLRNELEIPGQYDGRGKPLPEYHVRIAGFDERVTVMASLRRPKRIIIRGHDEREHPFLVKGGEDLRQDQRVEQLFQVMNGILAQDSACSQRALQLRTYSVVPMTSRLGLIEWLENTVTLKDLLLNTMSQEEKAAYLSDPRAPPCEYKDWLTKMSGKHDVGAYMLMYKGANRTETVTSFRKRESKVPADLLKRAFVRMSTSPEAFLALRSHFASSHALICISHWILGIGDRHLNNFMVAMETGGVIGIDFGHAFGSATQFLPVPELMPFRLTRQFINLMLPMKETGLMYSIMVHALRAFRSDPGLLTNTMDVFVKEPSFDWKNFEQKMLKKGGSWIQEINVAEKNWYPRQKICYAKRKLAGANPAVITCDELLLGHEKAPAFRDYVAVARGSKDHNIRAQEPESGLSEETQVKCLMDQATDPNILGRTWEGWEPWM
Heat shock protein HSP 90-beta, sequence (P08238 whole entry): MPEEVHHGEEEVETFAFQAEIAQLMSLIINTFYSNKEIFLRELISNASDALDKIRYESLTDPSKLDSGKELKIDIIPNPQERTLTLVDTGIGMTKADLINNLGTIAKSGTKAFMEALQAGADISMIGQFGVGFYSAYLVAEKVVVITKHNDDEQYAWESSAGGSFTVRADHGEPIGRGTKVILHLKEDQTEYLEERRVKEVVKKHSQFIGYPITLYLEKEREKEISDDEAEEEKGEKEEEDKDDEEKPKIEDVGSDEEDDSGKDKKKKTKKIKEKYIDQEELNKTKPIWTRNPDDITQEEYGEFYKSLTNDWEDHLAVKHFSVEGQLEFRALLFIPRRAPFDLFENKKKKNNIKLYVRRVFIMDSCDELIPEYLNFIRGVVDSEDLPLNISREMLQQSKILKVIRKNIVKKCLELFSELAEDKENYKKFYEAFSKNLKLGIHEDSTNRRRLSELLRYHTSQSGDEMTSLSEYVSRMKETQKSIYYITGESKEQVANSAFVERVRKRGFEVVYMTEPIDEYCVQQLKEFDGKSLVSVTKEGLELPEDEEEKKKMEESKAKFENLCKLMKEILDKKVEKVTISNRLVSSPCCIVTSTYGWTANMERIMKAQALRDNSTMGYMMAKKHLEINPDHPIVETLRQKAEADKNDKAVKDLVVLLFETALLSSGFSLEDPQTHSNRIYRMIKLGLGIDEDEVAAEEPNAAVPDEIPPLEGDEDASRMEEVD

## CC(=O)c1ccc(N2CCOCC2)cc1O
[1]
  IC50: 0.12 µM

## COc1cc(C=O)c([N+](=O)[O-])cc1OC
[2]
  IC50: 15 µM

## Nc1ncc(-c2ccccc2)nc1C(=O)Nc1ccccc1
[3]
  IC50: 0.62 µM

## CS(=O)(=O)c1ccc(-c2cnc(N)c(C(=O)Nc3ccccc3)n2)cc1
[4]
  IC50: 0.026 µM

## CC(CN(C)C)S(=O)(=O)c1ccc(-c2cnc(N)c(C(=O)Nc3ccccc3)n2)cc1 (stereo not drawn)
[4]
  Ki: 0.006 µM

## CCc1[nH]c(/C=C2\C(=O)Nc3ccc(S(=O)(=O)Nc4ccccc4)cc32)c(CC)c1CCC(=O)O
[3]
  IC50: 0.13 µM

## COc1cc(Br)c(C=O)cc1OC
[2]
  IC50: 30 µM

## O=c1cc(-c2ccccc2)oc2c(-c3ccccc3)c(N3CCOCC3)cc(O)c12
[1]
  IC50: 0.034 µM

## Cc1ccc2c(sc3ccccc32)c1-c1cccc2c(=O)cc(N3CCOCC3)oc12
[4]
  IC50: 1.2 µM and 2.5 µM

## C=C1C(=O)OC[C@@H]1C(=O)N1Cc2cc3ccccc3nc2C1
[5]
  IC50: 0.6 µM

## C=C1C(=O)OCC1(C(=O)OCC)C(=O)OCC
[5]
  IC50: 0.25 µM

## N#Cc1cc(-c2ccncc2)c(/C=N/N)nc1O
[3]
  IC50: 8 µM

## CO[C@@H]1/C=C/C=C(\C)C(=O)NC2=CC(=O)C(NCCCCCCOc3ccc4c(=O)cc(N5CCOCC5)oc4c3)=C(C[C@@H](C)C[C@@H](OC)[C@@H](O)[C@H](C)/C=C(\C)[C@H]1OC(N)=O)C2=O (stereo in doubt)
[6]
  EC50: 4 µM
[7]
  IC50: > 500 µM
[4]
  IC50: 6.1 µM

## COc1cc2c(c(OC)c1OC)-c1c(cc3c(c1OC)OCO3)CC(C)C(C)C2 (stereo not drawn) [SCHISANDRIN B]
[8]
  IC50: 7.3 µM

## CN1CCN(CCCN2c3ccccc3Sc3ccc(C(F)(F)F)cc32)CC1 [TRIFLUOPERAZINE]
[9]
  IC50: 100 µM

## COc1cc(C=O)ccc1O [VANILLIN]
[2]
  IC50: 1500 µM
